Experimental data as given in the OligoGym collection.
Oligonucleotides are written 5' to 3', each unit as a sugar letter and its base; * is a phosphorothioate linkage, no mark a phosphodiester; rarer units and linkages stand in square brackets, end groups in braces. Plain capitals give the bases only. d = 2'-deoxy (DNA); r = 2'-OH (RNA)
Further: test concentration or dose not given here.

The substances below were run against NOG (assay: reporter assay of Huesken 2005). Settings: siRNA.
For “sense rArCrArUrUrCrUrGrCrCrCrCrGrUrGrCrUrGrUdTdT / antisense rArCrArGrCrArCrGrGrGrGrCrArGrArArUrGrUdCdT”, the normalised inhibition (eCFP-eYFP dual reporter) was 60%. With “sense rArCrCrUrCrArUrCrGrArArCrArCrCrCrArGrAdTdT / antisense rUrCrUrGrGrGrUrGrUrUrCrGrArUrGrArGrGrUdCdC” the normalised inhibition (eCFP-eYFP dual reporter) was 102%. “sense rArCrGrArCrCrUrGrGrGrCrArGrCrCrGrCrUrUdTdT / antisense rArArGrCrGrGrCrUrGrCrCrCrArGrGrUrCrGrUdTdC” gave a normalised inhibition (eCFP-eYFP dual reporter) of 51.1%. Substance “sense rArCrUrArUrCrUrCrCrArCrArUrCrCrGrCrCrCdTdT / antisense rGrGrGrCrGrGrArUrGrUrGrGrArGrArUrArGrUdGdC” has a normalised inhibition (eCFP-eYFP dual reporter) of 52.8%. With “sense rArGrArGrUrUrCrUrCrCrGrArGrGrGrCrUrUrGdTdT / antisense rCrArArGrCrCrCrUrCrGrGrArGrArArCrUrCrUdAdG” the normalised inhibition (eCFP-eYFP dual reporter) was 55.1%. “sense rArGrCrArArGrArArGrCrUrGrCrGrGrArGrGrAdTdT / antisense rUrCrCrUrCrCrGrCrArGrCrUrUrCrUrUrGrCrUdTdA” gave a normalised inhibition (eCFP-eYFP dual reporter) of 97.7%. With “sense rArGrGrGrCrArUrGrGrUrGrUrGrCrArArGrCrCdTdT / antisense rGrGrCrUrUrGrCrArCrArCrCrArUrGrCrCrCrUdCdG” the normalised inhibition (eCFP-eYFP dual reporter) was 75.7%. “sense rArGrUrArArGrCrGrCrUrCrGrUrGrCrUrCrCrGdTdT / antisense rCrGrGrArGrCrArCrGrArGrCrGrCrUrUrArCrUdGdA” gave a normalised inhibition (eCFP-eYFP dual reporter) of 51%. With “sense rArUrCrCrGrCrCrCrGrGrCrArCrCrCrArGrCrGdTdT / antisense rCrGrCrUrGrGrGrUrGrCrCrGrGrGrCrGrGrArUdGdT” the normalised inhibition (eCFP-eYFP dual reporter) was 42.7%. With “sense rArUrCrUrCrCrArCrArUrCrCrGrCrCrCrGrGrCdTdT / antisense rGrCrCrGrGrGrCrGrGrArUrGrUrGrGrArGrArUdAdG” the normalised inhibition (eCFP-eYFP dual reporter) was 60.2%. Substance “sense rArUrGrGrUrGrUrGrCrArArGrCrCrGrUrCrCrAdTdT / antisense rUrGrGrArCrGrGrCrUrUrGrCrArCrArCrCrArUdGdC” has a normalised inhibition (eCFP-eYFP dual reporter) of 86.2%. Work on “sense rArUrUrCrUrGrCrCrCrCrGrUrGrCrUrGrUrArCdTdT / antisense rGrUrArCrArGrCrArCrGrGrGrGrCrArGrArArUdGdT” yielded a normalised inhibition (eCFP-eYFP dual reporter) of 51%. “sense rCrArArGrGrArArArArGrGrArUrCrUrGrArArCdTdT / antisense rGrUrUrCrArGrArUrCrCrUrUrUrUrCrCrUrUrGdGdG” was tested, and the normalised inhibition (eCFP-eYFP dual reporter) was 95.1%. “sense rCrArCrCrUrCrArCrGrGrUrGrCrUrGrCrGrGrUdTdT / antisense rArCrCrGrCrArGrCrArCrCrGrUrGrArGrGrUrGdCdA” showed a normalised inhibition (eCFP-eYFP dual reporter) of 56.3%. Work on “sense rCrArGrArCrCrCrUrArUrCrUrUrUrGrArCrCrCdTdT / antisense rGrGrGrUrCrArArArGrArUrArGrGrGrUrCrUrGdGdG” yielded a normalised inhibition (eCFP-eYFP dual reporter) of 88.8%. Substance “sense rCrArGrCrGrCrCrUrArArGrCrArArGrArArGrCdTdT / antisense rGrCrUrUrCrUrUrGrCrUrUrArGrGrCrGrCrUrGdCdT” has a normalised inhibition (eCFP-eYFP dual reporter) of 62.6%. “sense rCrArGrCrUrGrCrUrUrCrArGrUrArArGrCrGrCdTdT / antisense rGrCrGrCrUrUrArCrUrGrArArGrCrArGrCrUrGdCdC” gave a normalised inhibition (eCFP-eYFP dual reporter) of 56.5%. “sense rCrCrArCrArUrCrCrGrCrCrCrGrGrCrArCrCrCdTdT / antisense rGrGrGrUrGrCrCrGrGrGrCrGrGrArUrGrUrGrGdAdG” gave a normalised inhibition (eCFP-eYFP dual reporter) of 51.4%. With “sense rCrCrArGrCrUrGrCrUrGrCrGrGrCrArGrCrGrGdTdT / antisense rCrCrGrCrUrGrCrCrGrCrArGrCrArGrCrUrGrGdTdC” the normalised inhibition (eCFP-eYFP dual reporter) was 78.3%. With “sense rCrCrCrArGrCrGrArCrArArCrCrUrGrCrCrCrCdTdT / antisense rGrGrGrGrCrArGrGrUrUrGrUrCrGrCrUrGrGrGdTdG” the normalised inhibition (eCFP-eYFP dual reporter) was 68.1%. “sense rCrCrCrGrUrGrCrUrGrUrArCrGrCrGrUrGrGrAdTdT / antisense rUrCrCrArCrGrCrGrUrArCrArGrCrArCrGrGrGdGdC” gave a normalised inhibition (eCFP-eYFP dual reporter) of 60.3%. “sense rCrCrUrArUrCrUrUrUrGrArCrCrCrCrArArGrGdTdT / antisense rCrCrUrUrGrGrGrGrUrCrArArArGrArUrArGrGdGdT” showed a normalised inhibition (eCFP-eYFP dual reporter) of 89.1%. “sense rCrCrUrCrArCrGrGrUrGrCrUrGrCrGrGrUrGrGdTdT / antisense rCrCrArCrCrGrCrArGrCrArCrCrGrUrGrArGrGdTdG” gave a normalised inhibition (eCFP-eYFP dual reporter) of 70.1%. With “sense rCrCrUrCrArUrCrGrArArCrArCrCrCrArGrArCdTdT / antisense rGrUrCrUrGrGrGrUrGrUrUrCrGrArUrGrArGrGdTdC” the normalised inhibition (eCFP-eYFP dual reporter) was 79.3%. Work on “sense rCrCrUrGrGrUrGrGrArCrCrUrCrArUrCrGrArAdTdT / antisense rUrUrCrGrArUrGrArGrGrUrCrCrArCrCrArGrGdGdG” yielded a normalised inhibition (eCFP-eYFP dual reporter) of 81.7%. Work on “sense rCrGrCrArGrArCrArUrUrCrUrGrCrCrCrCrGrUdTdT / antisense rArCrGrGrGrGrCrArGrArArUrGrUrCrUrGrCrGdAdC” yielded a normalised inhibition (eCFP-eYFP dual reporter) of 53%. In the case of “sense rCrGrCrUrGrCrUrGrCrGrCrUrCrGrCrUrGrCrUdTdT / antisense rArGrCrArGrCrGrArGrCrGrCrArGrCrArGrCrGdTdC”, the normalised inhibition (eCFP-eYFP dual reporter) was 73.4%. “sense rCrUrGrArArCrGrArGrArCrGrCrUrGrCrUrGrCdTdT / antisense rGrCrArGrCrArGrCrGrUrCrUrCrGrUrUrCrArGdAdT” was tested, and the normalised inhibition (eCFP-eYFP dual reporter) was 46.9%.

These substances were tested against UBE2L6 (assay: reporter assay of Huesken 2005). Settings: siRNA.
In the case of “sense rGrGrArGrCrUrGrUrUrCrArGrArArArGrArArUdTdT / antisense rArUrUrCrUrUrUrCrUrGrArArCrArGrCrUrCrCdGdG”, the normalised inhibition (eCFP-eYFP dual reporter) was 108%. In the case of “sense rGrGrArGrUrArUrCrCrGrUrUrCrArArGrCrCrUdTdT / antisense rArGrGrCrUrUrGrArArCrGrGrArUrArCrUrCrCdGdG”, the normalised inhibition (eCFP-eYFP dual reporter) was 84.6%. For “sense rGrGrArUrGrGrArCrCrUrCrGrCrUrGrArCrCrUdTdT / antisense rArGrGrUrCrArGrCrGrArGrGrUrCrCrArUrCrCdGdC”, the normalised inhibition (eCFP-eYFP dual reporter) was 80.5%. “sense rGrGrCrArCrGrCrUrCrUrCrCrUrCrCrUrArCrCdTdT / antisense rGrGrUrArGrGrArGrGrArGrArGrCrGrUrGrCrCdAdC” was tested, and the normalised inhibition (eCFP-eYFP dual reporter) was 62.5%. Substance “sense rGrUrCrCrUrGrGrUrGrUrGrGrCrArCrGrCrUrCdTdT / antisense rGrArGrCrGrUrGrCrCrArCrArCrCrArGrGrArCdAdT” has a normalised inhibition (eCFP-eYFP dual reporter) of 74.2%. “sense rGrUrGrArArUrArGrArCrCrGrArArUrArUrCrAdTdT / antisense rUrGrArUrArUrUrCrGrGrUrCrUrArUrUrCrArCdCdA” showed a normalised inhibition (eCFP-eYFP dual reporter) of 89.9%. For “sense rGrUrGrGrCrArCrGrCrUrCrUrCrCrUrCrCrUrAdTdT / antisense rUrArGrGrArGrGrArGrArGrCrGrUrGrCrCrArCdAdC”, the normalised inhibition (eCFP-eYFP dual reporter) was 96.9%. “sense rGrUrUrCrArCrCrCrUrCrCrGrArUrUrCrGrGrAdTdT / antisense rUrCrCrGrArArUrCrGrGrArGrGrGrUrGrArArCdTdC” gave a normalised inhibition (eCFP-eYFP dual reporter) of 61.1%. For “sense rUrArCrCrArCrCrCrCrArArCrGrUrGrGrArCrGdTdT / antisense rCrGrUrCrCrArCrGrUrUrGrGrGrGrUrGrGrUrAdGdA”, the normalised inhibition (eCFP-eYFP dual reporter) was 37.4%. For “sense rUrCrArArGrCrCrUrCrCrCrArUrGrArUrCrArAdTdT / antisense rUrUrGrArUrCrArUrGrGrGrArGrGrCrUrUrGrAdAdC”, the normalised inhibition (eCFP-eYFP dual reporter) was 86.7%. Substance “sense rUrCrArArUrGrUrGrCrUrGrGrUrGrArArUrArGdTdT / antisense rCrUrArUrUrCrArCrCrArGrCrArCrArUrUrGrAdGdG” has a normalised inhibition (eCFP-eYFP dual reporter) of 69.1%. Substance “sense rUrCrArUrCrArGrCrArGrUrGrArGrArArCrUrGdTdT / antisense rCrArGrUrUrCrUrCrArCrUrGrCrUrGrArUrGrAdTdG” has a normalised inhibition (eCFP-eYFP dual reporter) of 61.3%. “sense rUrCrCrUrCrCrUrArCrCrCrGrArCrCrArArCrCdTdT / antisense rGrGrUrUrGrGrUrCrGrGrGrUrArGrGrArGrGrAdGdA” gave a normalised inhibition (eCFP-eYFP dual reporter) of 49.5%. “sense rUrCrCrUrGrGrArGrGrCrCrCrUrCrArArUrGrUdTdT / antisense rArCrArUrUrGrArGrGrGrCrCrUrCrCrArGrGrAdCdT” showed a normalised inhibition (eCFP-eYFP dual reporter) of 74.2%. “sense rUrCrUrArCrCrArCrCrCrCrArArCrGrUrGrGrAdTdT / antisense rUrCrCrArCrGrUrUrGrGrGrGrUrGrGrUrArGrAdTdC” gave a normalised inhibition (eCFP-eYFP dual reporter) of 53%. Substance “sense rUrCrUrCrCrUrCrCrUrArCrCrCrGrArCrCrArAdTdT / antisense rUrUrGrGrUrCrGrGrGrUrArGrGrArGrGrArGrAdGdC” has a normalised inhibition (eCFP-eYFP dual reporter) of 79.9%. For “sense rUrGrArCrArCrArGrArArUrCrCrGrGrArGrCrUdTdT / antisense rArGrCrUrCrCrGrGrArUrUrCrUrGrUrGrUrCrAdGdC”, the normalised inhibition (eCFP-eYFP dual reporter) was 54.8%. For “sense rUrGrCrCrGrArArGrArGrUrUrCrArCrCrCrUrCdTdT / antisense rGrArGrGrGrUrGrArArCrUrCrUrUrCrGrGrCrAdTdT”, the normalised inhibition (eCFP-eYFP dual reporter) was 59.9%. “sense rUrGrGrArArGrCrCrUrUrGrCrArCrCrArArGrAdTdT / antisense rUrCrUrUrGrGrUrGrCrArArGrGrCrUrUrCrCrAdGdT” gave a normalised inhibition (eCFP-eYFP dual reporter) of 77.7%. With “sense rUrGrGrUrGrUrGrGrCrArCrGrCrUrCrUrCrCrUdTdT / antisense rArGrGrArGrArGrCrGrUrGrCrCrArCrArCrCrAdGdG” the normalised inhibition (eCFP-eYFP dual reporter) was 89.5%. In the case of “sense rUrGrUrGrCrUrGrGrUrGrArArUrArGrArCrCrGdTdT / antisense rCrGrGrUrCrUrArUrUrCrArCrCrArGrCrArCrAdTdT”, the normalised inhibition (eCFP-eYFP dual reporter) was 59%. “sense rUrUrCrArArGrCrCrUrCrCrCrArUrGrArUrCrAdTdT / antisense rUrGrArUrCrArUrGrGrGrArGrGrCrUrUrGrArAdCdG” gave a normalised inhibition (eCFP-eYFP dual reporter) of 71.2%. In the case of “sense rUrUrCrArGrArArArGrArArUrGrCrCrGrArArGdTdT / antisense rCrUrUrCrGrGrCrArUrUrCrUrUrUrCrUrGrArAdCdA”, the normalised inhibition (eCFP-eYFP dual reporter) was 57.7%. “sense rUrUrCrCrCrGrCrCrGrGrArGrUrArUrCrCrGrUdTdT / antisense rArCrGrGrArUrArCrUrCrCrGrGrCrGrGrGrArAdGdC” gave a normalised inhibition (eCFP-eYFP dual reporter) of 43%.
